Patent publication US10017527B2, “KLK4 inhibitors” (Universiteit Antwerpen, priority 2014, dated 2018)

Tests used:
Type in all cases: biochemical
[1] = target: AcHE (Homo sapiens, UniProt P22303); test: AcHE inhibition; conditions: read-out: IC50 AcHE
[2] = target: T1, KLK2 (human) (Homo sapiens, UniProt P20151); test: KLK2 inhibition, fluorogenic substrate H-Pro-Phe-Arg-AMC; conditions: Tris buffer pH 8.3; read-out: IC50 KLK2
T1 construct: purchased Viktor Magdolen, TUMunich (TUM), supplied by an academic laboratory
T1 sequence (P20151 25-261): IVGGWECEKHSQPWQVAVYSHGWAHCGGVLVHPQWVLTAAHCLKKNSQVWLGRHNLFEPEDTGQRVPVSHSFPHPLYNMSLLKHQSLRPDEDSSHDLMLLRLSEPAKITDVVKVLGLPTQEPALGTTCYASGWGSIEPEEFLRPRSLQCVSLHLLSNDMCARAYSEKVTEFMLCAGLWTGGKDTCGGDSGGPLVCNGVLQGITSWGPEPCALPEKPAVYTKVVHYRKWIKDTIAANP
Method in brief: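 IC50 values for KLK1 and KLK2 were determined by the same procedure. For tPA and neutrophil elastase, chromogenic substrate cleavage was followed by absorbance at 405 nm.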

[3] = target: T2, Neurtophil Elastase(human) (Homo sapiens, UniProt P08246); test: Neutrophil elastase inhibition, chromogenic substrate MeOSuc-Ala-Ala-Pro-Val-pNA; conditions: Tris buffer pH 7.8; read-out: IC50 HNE
T2 construct: purchased Enzo-life sciences
T2 sequence (P08246 30-267): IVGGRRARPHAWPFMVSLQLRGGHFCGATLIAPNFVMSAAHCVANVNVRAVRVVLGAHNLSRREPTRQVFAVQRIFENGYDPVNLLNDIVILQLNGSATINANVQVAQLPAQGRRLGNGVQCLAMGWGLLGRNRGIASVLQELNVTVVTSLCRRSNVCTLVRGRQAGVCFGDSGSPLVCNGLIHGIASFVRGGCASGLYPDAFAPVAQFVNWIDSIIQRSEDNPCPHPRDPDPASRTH
Excerpt: (§1) The IC50 values For KLK1, KLK2 and KLK8 were obtained in a similar way. For plasmin, tPA, thrombin, Fxa, HNE, Plasma kallikrein Chromogenic substrates were used (absorption: 405 nm). (KLK2, KLK4, KLK8 were supplied by Viktor Magdolen TUMunich (TUM)).

[4] = target: T3, KLK4 (Homo sapiens, UniProt Q9Y5K2); test: KLK4 enzymatic inhibition, fluorogenic substrate Boc-Val-Pro-Arg-AMC; conditions: 15 min pre-incubation at 37° C., Tris buffer pH 8.3; read-out: IC50 KLK4
T3 construct: purchased Viktor Magdolen (TUM), supplied by an academic laboratory
T3 sequence (Q9Y5K2 31-254): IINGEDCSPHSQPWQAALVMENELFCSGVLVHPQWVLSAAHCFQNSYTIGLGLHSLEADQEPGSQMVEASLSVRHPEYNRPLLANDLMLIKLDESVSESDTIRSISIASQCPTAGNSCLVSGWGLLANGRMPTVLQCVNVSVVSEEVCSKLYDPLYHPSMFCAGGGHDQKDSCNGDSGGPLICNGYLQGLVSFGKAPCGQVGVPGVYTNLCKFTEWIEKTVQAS

[5] = target: T4, PlasmaKLK (human plasma) (Homo sapiens, UniProt P03952); test: Plasma kallikrein inhibition, chromogenic substrate Biophen CS-31(02); conditions: Plasma KLK; Tris buffer pH 7.8; read-out: IC50 pKLK
T4 construct: purchased Sigma-Aldrich; host or cells: human plasma
T4 sequence (P03952 391-638 limits assumed): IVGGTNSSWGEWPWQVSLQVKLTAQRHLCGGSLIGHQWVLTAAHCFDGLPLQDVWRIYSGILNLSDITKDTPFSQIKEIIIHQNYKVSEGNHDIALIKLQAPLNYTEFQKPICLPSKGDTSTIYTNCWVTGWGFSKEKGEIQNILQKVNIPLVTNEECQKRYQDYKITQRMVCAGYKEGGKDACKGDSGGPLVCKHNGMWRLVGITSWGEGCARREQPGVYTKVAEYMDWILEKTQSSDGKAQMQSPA
T4 sequence (P03952 20-390 partner limits assumed): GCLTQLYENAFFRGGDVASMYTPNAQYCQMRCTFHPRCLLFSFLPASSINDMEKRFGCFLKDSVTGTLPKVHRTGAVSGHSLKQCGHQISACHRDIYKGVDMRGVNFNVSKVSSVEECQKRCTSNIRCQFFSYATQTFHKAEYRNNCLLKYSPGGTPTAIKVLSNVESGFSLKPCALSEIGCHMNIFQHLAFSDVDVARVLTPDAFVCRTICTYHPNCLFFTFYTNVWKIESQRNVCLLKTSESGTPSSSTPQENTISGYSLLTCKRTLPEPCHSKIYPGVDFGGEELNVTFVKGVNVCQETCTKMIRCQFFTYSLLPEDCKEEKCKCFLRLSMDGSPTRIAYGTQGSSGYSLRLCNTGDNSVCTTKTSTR
Excerpt: as §1

Chain of AcHE (P22303 32-614): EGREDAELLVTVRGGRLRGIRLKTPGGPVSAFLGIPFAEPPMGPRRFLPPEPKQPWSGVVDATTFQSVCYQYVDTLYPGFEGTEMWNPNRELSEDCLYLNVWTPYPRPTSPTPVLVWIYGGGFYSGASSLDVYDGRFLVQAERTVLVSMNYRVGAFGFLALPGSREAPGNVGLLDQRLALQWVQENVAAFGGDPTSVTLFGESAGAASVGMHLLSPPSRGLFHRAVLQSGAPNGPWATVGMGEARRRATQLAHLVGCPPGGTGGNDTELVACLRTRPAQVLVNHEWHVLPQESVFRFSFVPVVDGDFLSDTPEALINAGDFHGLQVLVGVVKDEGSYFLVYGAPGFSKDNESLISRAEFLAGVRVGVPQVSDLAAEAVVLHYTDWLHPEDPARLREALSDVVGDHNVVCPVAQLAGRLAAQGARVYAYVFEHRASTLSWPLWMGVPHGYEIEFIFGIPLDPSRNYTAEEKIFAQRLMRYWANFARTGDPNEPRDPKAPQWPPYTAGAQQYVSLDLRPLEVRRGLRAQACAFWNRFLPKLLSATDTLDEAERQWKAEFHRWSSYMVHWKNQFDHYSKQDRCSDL

Row | Compound | IC50 [1] [µM] | IC50 [2] [µM] | IC50 [3] [µM] | IC50 [4] [µM] | IC50 [5] [µM]
1 | COCCOCCOC(=O)NC(c1ccc(NC(=N)N)cc1)P(=O)(Oc1ccccc1)Oc1ccccc1.O=C(O)C(F)(F)F (stereo not shown) [Compound 28, 2-(2-methoxyethoxy)ethyl((diphenoxyphosphoryl)(4-guanidinophenyl)methyl) carbamate 2,2,2-trifluoroacetate] | 10 to 250 | 0.1 to 1 | > 250 | < 0.1 | 10 to 250
2 | N=C(N)Nc1ccc(C(NC(=O)OCCOc2ccccc2)P(=O)(Oc2ccccc2)Oc2ccccc2)cc1.O=C(O)C(F)(F)F (stereo not shown) [Compound 30, 2-phenoxyethyl((diphenoxyphosphoryl)(4-guanidinophenyl)methyl)carbamate 2,2,2-trifluoroacetate] | 10 to 250 | 0.1 to 1 | > 250 | < 0.1 | > 250
